The text below walks through data of patent US6511971B1, “Substituted perhalogenated phthalocyanines” (Brown University Research Foundation, priority 1998, dated 2003).

One data set has as its system EMT-6 tumor. Briefly: In vivo phototoxicity: photodynamic therapy in murine EMT-6 tumor model. The following applies: CRM emulsion. The arrangement: species or system BALB/c mice. The procedure:
The in vivo phototoxicity effects of ZnPcF64 on mouse tumors were determined by J. E. van Lier and colleagues at the University of Sherbrooke, Sherbrooke, QC, Canada, in accordance with published procedures. (Alleman et al. Int. J. Cancer, 72:289-294 (1997))
Experiments were performed on male BALB/c mice (16-22 g) and female Fisher CDF (F-344) rats (approx. 150 g) (Charles River, Montreal, Canada) following a protocol approved by the Canadian Council on Animal Care and an in-house ethics committee. Animals were allowed free access to water and food throughout the course of the experiments. Before tumor implantation, hair on the hind legs and back of the mice was removed by shaving and chemical depilating (Nair®, Whitehall, Mississauga, Canada). A tumor was implanted on each hind thigh by intradermal injection of 2 times 10^5 EMT-6 cells suspended in 0.05 ml Waymouth's growth medium. Biodistribution and photodynamic activity of ZnPcF64 were assayed using a murine EMT-6 tumor model (Allémann et al. Int. J. Cancer, 72:289-294 (1997)).
For PDT studies, mice were used 6-8 days after tumor inoculation (tumor size: 3-5 mm diameter, 2-3 mm thickness). At this time point, the tumor is sufficiently large to be measured, while therapeutic response can be observed without interference of spontaneous necrosis (Margaron et al. Anticancer Res. 16:613-620 (1996)). Animals were given an i.v. injection of ZnPcF64 formulated as a CRM emulsion at I or 2.5 μmol kg^−1 (0.2 ml), and one tumor was treated with red light 24-72 hr later, while the other tumor served as a control. Tumors were illuminated with an 8-mm diameter beam of 650-700 nm light ([…] for a total fluence of 100-400 J .cm^−2) generated by a 1,000 W Xenon lamp, equipped with a 10-cm circulating water filter and 2 glass filters (Corion LL650 and LS700, Holliston, Mass.). A positive tumor response (necrosis) was assigned to tumors which appeared macroscopically as flat and necrotic tissues within a few days after PDT (Allémann et al. Int. J Canc. 66:821-824 (1996)). […]

The subject of data set [1] is EMT-6 mouse mammary tumor cells. Briefly: In vitro phototoxicity: cell photo-inactivation, MTT cell survival assay. In kind it is cell-based. Particulars: EMT-6 cells. The procedure: Chremophor emulsions were prepared and cell photo inactivation was determined by J. E. van Lier and colleagues at the University of Sherbrooke, Sherbrooke, QC, Canada, in accordance with published procedures. (Alleman et al. Int. J. Cancer, 72:289-294 (1997))
Chremophor EL (CRM) was obtained from BASF (Toronto, Canada). All solvents were of analytical grade, and all other chemicals were commercially available products. Zinc octakis (perfluoroisopropyl) perfluorophthalocyanine (“ZnPcF64”, 2.5 mg) was first dissolved in methanol (2 mL). 500 μL of Chremophor and 150 μL of propane diol were added to the solution. The methanol was evaporated by rotory evaporation at room temperature. The residue was diluted with PBS to 5 mL and sterile filtered (0.2 μm). […]
After incubation, cells were rinsed twice with PBS, refed with 100 μl Waymouth 15% FBS and exposed to red light. […] The fluence rate calculated over the absorbance peaks of the dyes (660-700 nm) was 10 mW cm^−2, for a total fluence of 0.6-36 J/cm^2. […] Plates were incubated overnight at 37° C., after which the absorbance was read at 595 nm by means of a microplate reader (BioRad, Mississauga, Canada). The average absorbance of the blank wells in which cells were omitted was subtracted from the readings of the other wells. The average absorbance of the control cells, which were incubated with dye-free Waymouth 1% FBS, represents 100% cell survival. […]
Background: Tetrazolium dyes change colour on reduction, which living cells bring about.

In the case of “Zinc Octakis (perfluoroisopropyl) Perfluorophthalocyanine, Bis-acetone Solvate [ZnPcF64]”, in the data set on EMT-6 tumor (1 μmol/kg i.v., 650-700 nm light 24-72 hr later, EMT-6 tumor in mice), the “tumor response after PDT” value was “complete tumor necrosis”. Besides, in the data set with EMT-6 tumor (1 μmol/kg i.v., 650-700 nm light, EMT-6 tumor in mice), the “inflammation after PDT” value is given as “some inflammation”. The “outcome of treated mice (lethality)” value with EMT-6 tumor (2.5 μmol/kg i.v., tumor-bearing mice) was “died of shock”. Besides, in data set [1] (CRM emulsion at 1 and 3 μM, 1 or 24 hours incubation, red light 660-700 nm, 0.6-36 J/cm^2, any conditions), the phototoxic effects entry was “No phototoxic effects”. This substance came in with a Cell survival in data set [1] (highest dye concentrations and longest light exposure) of 100%.
